In publication PMC6859854 (2019):

System: 75 nadA (RNA, riboswitch) GGGUUUGGUUGCAACAUCCCCGUGGGUUGGGUGAUGGCUCCAAUCAGAGCCGGAACAGCGAAUCCACUGCAACCGUGA
Assay: in-line probing
Details: 20 mM Mg2+, 100 mM K+; 50 mM Tris-HCl pH 8.3, 23 °C, 42–72 h; apparent

For `NC(=O)c1ccc[n+]([C@@H]2O[C@H](COP(=O)(O)OP(=O)(O)OC[C@H]3O[C@@H](n4cnc5c(N)ncnc54)[C@H](O)[C@@H]3O)[C@@H](O)[C@H]2O)c1`, the KD was ~ 90 μM.
